The results in this text go back to patent US20210177722A1, “Phytic Acid Ester Derivative” (NATIONAL UNIVERSITY CORPORATION KUMAMOTO UNIVERSITY, priority 2018, published 2021).

One series has as its system HeLa cell. In words: Quantitative determination of IP6 in cell (LC/MS of IP6 methyl ester). It is filed as cell-based. To be noted: HeLa cells, 10 μM, 30 minutes. As to the method: In this example, incorporation of Pro-IP6 into a HeLa cell was quantitatively determined.
HeLa cells (5×10^5 cells/well, culture fluid: 1 mL) were seeded in a 3.5 cm dish to be cultured for 24 hours. Thereafter, DMSO (1%, Fujifilm Wako Pure Chemical Corporation), an aqueous solution (1%) of IP6 (final concentration: 10 μM, Sigma Aldrich), or a DMSO solution (1%) of Pro-IP6 (final concentration: 10 μM) synthesized in Example 1 was added thereto, and the resultant was cultured for another 30 minutes. HeLa cells were cultured with neither IP6 nor Pro-IP6 added, followed by adding the same amount of DMSO thereto, and the resultant was used as a negative control.
Thereafter, the resultant was washed with 1× PBS (−) once, and the resultant cells were scraped with a cell scraper, transferred to a 1.5 mL tube, and washed with 1× PBS (−) three times. To the thus obtained precipitate, 350 μl of MeOH (Fujifilm Wako Pure Chemical Corporation) and 1% NP-40 (Nacalai Tesque, Inc.) were added, followed by sonication (10 minutes). After equilibrating a column (Oasis WAX 1cc, Waters) with MeOH (1 mL) and H2O (1 mL), a disrupted cell extract was added thereto. Thereafter, the column was washed with 50% MeOH (1 mL), and eluted with 50% MeOH (200 μL×2) containing 2 mol/L of HCl (Fujifilm Wako Pure Chemical Corporation). The thus obtained eluate was concentrated, and dissolved in MeOH (50 μL), and trimethylsilyldiazomethane (200 μl, Tokyo Chemical Industry Co., Ltd.) was added thereto, followed by stirring at 50° C. for 1 hour under argon atmosphere. The reaction was stopped by adding H2O (100 μL). Through a reaction of trimethylsilyidiazomethane with IP6, IP6 methyl ester is obtained.
The thus obtained sample (IP6 methyl ester) was measured by LC/MS [column: MastroC18 2.1 mm×100 mm, […] (Shimadzu GLC Ltd.), mobile phase: 0.1% formic acid solution (Fujifilm Wako Pure Chemical Corporation), acetonitrile (Fujifilm Wako Pure Chemical Corporation)] [LC:LC-20AD (Shimadzu), MS: amaZon speed (BRUKER)].

Series [1] has as its system MT-2 cell (HTLV transformed human T cell leukemia cell). In words: MTT assay, MT-2 cell. It is filed as cell-based. The note with it: 1 μM or 10 μM, 8 hours or 24 hours. As to the method: (§1) In this example, the cytotoxic effect of Pro-IP6 on four types of blood cancer cell lines and a cell derived from a healthy person was examined by MTT assay. […] It is possible to check viability of cultured cells by MTT assay. Cancer cell lines (1.74×10^4 cells/well, culture fluid: 200 μL) • MT-2 cell (HTLV transformed human T cell leukemia cell) • […] cell (human T-lymphoblastoid cell) • Jurkat cell (human T-lymphocyte cell) • K562 cell (chronic myelogenous leukemia cell) Each of the above-described types of cells was seeded in a 96-well plate, and was cultured for 8 hours for each of the various cancer cell lines and for 16 hours for PMBC. Thereafter, DMSO (1%, Fujifilm Wako Pure Chemical Corporation), an aqueous solution (1%) of IP6 (final concentration: 1 μM or 10 μM, Sigma Aldrich), or a DMSO solution (1%) of Pro-IP6 (final concentration: 1 μM or 10 μM) was added thereto, followed by culturing for 8 hours or 24 hours. An MTT reagent (Dojindo Laboratories, 1.1 mg/mL) was added in an amount of 50 μL per well, and the resultant was cultured for another 4 hours. The thus precipitated crystal was collected, a supernatant was removed, and 100 μL of DMSO was added thereto to completely dissolve. The resultant solution was measured for an absorbance (550 nm).
Background: Formazan colour is commonly taken as a measure of viable cells.

Series [2] deals with M8166 cell (human T-lymphoblastoid cell). Put plainly: MTT assay, M8166 cell. The note with it: M8166 cell, 1 μM or 10 μM, 8 hours or 24 hours. It is filed as cell-based. As to the method: as §1
Series [3] concerns Jurkat cell (human T-lymphocyte cell). Put plainly: MTT assay, Jurkat cell. It is filed as cell-based. To be noted: Jurkat cell, 1 μM or 10 μM, 8 hours or 24 hours. As for the experimental part:
as §1

The test system of series [4] is K562 cell (chronic myelogenous leukemia cell). In words: MTT assay, K562 cell. It is filed as cell-based. The note with it: 1 μM or 10 μM, 8 hours or 24 hours. As to the method:
as §1

In series [5] the test system is S1T cell (ATL cell line) tumor. Put plainly: Effect on HTLV-1 infected cell-transplanted mouse (ATL model). It is filed as in vivo. The note with it: day 28 after transplantation, 7.1 mg/kg per day intraperitoneally for 28 days, NSG mice with S1T cells. The text has this:
In this example, the in vivo effect of Pro-IP6 on an HTLV-1 infected cell-transplanted mouse was checked. HTLV-1 (human T cell leukemia virus 1) mainly infects CD4-positive T lymphocyte, and when the infected cell cancerates, refractory malignant tumor, adult T-cell leukemia (ATL) is caused. In this example, S1T cell, that is, one of ATL cell lines, was used.
5-Week-old female NSG mice (NOD. Cg-Prkdc scid I12rg tm1Wjl/SzJ, Charles River Laboratories Japan, Inc.) were used. Five mice each in each of two cages, namely, ten mice in total, were raised with sterilized bedding (Pepar Clean: Japan SLC, Inc.) placed in a sterilized cage (Clea Japan, Inc.). […]
The control group was dosed with DMSO, and the IP6 administration group and the pro-IP6 administration group were intraperitoneally dosed respectively with IP6 in an amount of 7.1 mg/kg and pro-IP6 in an amount of 20 mg/kg. The mice were dosed continuously for 28 days after the day of the cell transplantation, and the weight and the tumor volume of each mouse were measured every day. The tumor volume was defined as (shorter diameter in mm)^2×(longer diameter in mm)×0.5, and the shorter diameter and the longer diameter were measured with a caliper. […] Subsequently, the tumor was totally removed, and the tumor volume and the tumor weight of each tumor were measured.

`O=P(O)(O)O[C@H]1[C@H](OP(=O)(O)O)[C@@H](OP(=O)(O)O)[C@H](OP(=O)(O)O)[C@@H](OP(=O)(O)O)[C@H]1OP(=O)(O)O` [IP6, myo-inostiol-1,2,3,4,5,6-hexaphosphate, reference compound]: the “incorporation into HeLa cell (IP6 methyl ester by LC/MS vs negative control)” value with HeLa cell is “substantially the same as that of the negative control”. The cytotoxic effect result in series [1], in series [2], in series [3] and in series [4] was “minimally exhibited the effect” throughout. Also, the “tumor volume compared with that of the control group” value in series [5] is reported as “not significantly different”.
